Results taken from patent publication US9011988B2, “Liquid-crystal compound, liquid-crystal composition, light absorption anisotropic film, and liquid-crystal display device” (Fujifilm Corporation, priority 2010, dated 2015).

Experiments:
Assay type in all cases: physicochemical
[1] = Maximum absorption wavelength of the dye in N-methylpyrrolidone (UV-2550 spectrophotometer); settings: for λmax: in N-methylpyrrolidone solvent
Procedure: <Maximum Absorption Wavelength>
The maximum absorption wavelength of the dye in N-methylpyrrolidone solvent was measured with a UV-2550 spectrophotometer (made by Shimadzu Corp.).

[2] = Light resistance of light absorption anisotropic film (change in intensity of absorption)
Procedure: While being heated from room temperature to 200° C., each of the light absorption anisotropic films that had been prepared was irradiated with 10 mW of light and the light resistance was determined based on the change in the intensity of absorption.

[3] = Phase transition temperature by DSC thermal analysis and polarizing microscope observation
Procedure: <Phase Transition Temperature>
The phase transition temperature was determined by thermal analysis with a DSC measurement apparatus (made by Seiko Instruments) and by visual observation with a polarizing microscope.

[4] = Solubility in chloroform / preparation of chloroform coating liquid
Procedure: The solubility of these compounds in chloroform was measured.
Following stirring and dissolution, a liquid-crystal composition coating liquid was obtained. Each of the coating liquids was then coated on an alignment film that had been formed on a glass substrate and had been rubbed. Subsequently, the chloroform was allowed to dry naturally at room temperature, yielding individual light absorption anisotropic films. The polyvinylalcohol indicated below was employed as the alignment film.

[5] = light absorption anisotropic film irradiated with 10 mW of light while heated from room temperature to 200° C., change in intensity of absorption

| SMILES | λmax [1] | Light resistance [2, 5] | other results |
| --- | --- | --- | --- |
| CCCCCCOc1ccc(N=Nc2ccc(C=Cc3cc(OCCOCCOCCOC)c(C=Cc4ccc(N=Nc5ccc(OCCCCCC)cc5)cc4)cc3OC)cc2)cc1 [A-3] | 463.3 nm | Good |  |
| CCCCCCOc1ccc(N=Nc2ccc(C=Cc3cc(OCCOCCOCCO)c(C=Cc4ccc(N=Nc5ccc(OCCCCCC)cc5)cc4)cc3OC)cc2)cc1 [A-4] | 463.8 nm | Good |  |
| CCCCCCCCCCCCCCCCCCOc1cc(C=Cc2ccc(N=Nc3ccc(OCCCCCC)cc3)cc2)c(OC)cc1C=Cc1ccc(N=Nc2ccc(OCCCCCC)cc2)cc1 [A-9] | 460.0 nm | Good |  |
| CCCCCCOc1ccc(N=Nc2ccc(C=Cc3cc(OCCOCCOCCOC)c(C=Cc4ccc(N=Nc5ccc(OCCCCCC)cc5)cc4)cc3OCCOCCOCCOC)cc2)cc1 [A-10] | 457.5 nm | Good |  |
| CCCCCCOc1ccc(N=Nc2ccc(C=Cc3cc(OC)c(C=Cc4ccc(N=Nc5ccc(OCCCCCC)cc5)cc4)cc3OC)cc2)cc1 [A-34] | 463.4 nm |  | temperature range in which nematic liquid crystallinity was confirmed [3]: ≥ 247 °C |
| CCCCc1ccc(N=Nc2ccc(N=Nc3ccc(N=Nc4ccc(N=Nc5ccc(N=Nc6ccc(CCCC)cc6)cc5)cc4C)c(C)c3)cc2)cc1 [Comparative Compound 1] |  |  | temperature range in which nematic liquid crystallinity was confirmed [3]: ≥ 220 °C; preparation of coating liquid ([4]; 1 weight part compound in 99 weight parts of chloroform): precluding preparation of a coating liquid; solubility in chloroform (in words) [4]: almost no solubility |
| CCCCCCOc1ccc(/C=C/c2ccc(/C=C/c3cc(OCCOCCOCCOCCOCCOCCO)c(/C=C/c4ccc(/C=C/c5ccc(OCCCCCC)cc5)cc4)cc3OC)cc2)cc1 [Comparative Compound 2, reference compound] |  | Poor | original absorption wavelength [1]: 432.5 nm; solubility in chloroform (in words) [4]: good solubility; Light resistance ([2]; film heated from room temperature to 200° C., irradiated with 10 mW of light): poor light resistance |
